In patent US10301320B2, “Compositions and methods of modulating 15-PGDH activity” (CASE WESTERN RESERVE UNIVERSITY, priority 2012, dated 2019) one finds inhibition data, which are given here for 56 compounds.

The test has as its target recombinant 15-PGDH protein (Homo sapiens (Human), UniProt P15428). The test can be described thus: Inhibition of enzymatic activity of recombinant 15-PGDH in vitro.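 Also: activity of recombinant human 15-PGDH assayed in vitro using PGE2 as the substrate.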 Format: biochemical. Particulars: read-out: Enzyme inhibition % ([…]), recombinant 15-PGDH, […] compound.
The mark [1] stands for this setting: read-out: Enzyme inhibition % (2.5 μM).
Where [2] appears, read: read-out: Enzyme inhibition % (7.5 μM).

Read-outs that look alike come from different tables or passages of the source.

Chain of recombinant 15-PGDH protein (P15428 whole entry): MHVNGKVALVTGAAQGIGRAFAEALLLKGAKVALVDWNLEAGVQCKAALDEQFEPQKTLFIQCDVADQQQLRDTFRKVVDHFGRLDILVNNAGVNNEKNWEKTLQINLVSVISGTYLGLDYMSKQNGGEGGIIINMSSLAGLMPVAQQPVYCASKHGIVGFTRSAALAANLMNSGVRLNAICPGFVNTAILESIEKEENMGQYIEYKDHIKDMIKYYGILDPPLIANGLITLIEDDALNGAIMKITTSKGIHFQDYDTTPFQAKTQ

With `COc1ccc(OC)c(N(CC(=O)Nc2cccnc2)S(=O)(=O)c2ccc(C)cc2)c1` [SW202939], the inhibition at […] is 53.5% under setting [1] and 78.3% under setting [2].

As for `COc1ccc(OC)c(N(CC(=O)Nc2cccnc2)S(=O)(=O)c2ccccc2C#N)c1` [SW202945], the inhibition at […] under setting [1] amounted to 8.83% and the inhibition at […] under setting [2] was determined as 11.1%.

For `COc1ccc(OC)c(N(CC(=O)Nc2cccnc2)C(C)=O)c1` [SW202952], the inhibition at […] by setting is: under setting [1], 29%; under setting [2], 57%.

Take `COc1ccc(OC)c(N(CC(=O)O)S(=O)(=O)c2ccccc2)c1` [SW122063]: the inhibition at […] was -12.2% under setting [1] and -10.5% under setting [2].

In the case of `COc1ccc(OC)c(N(CC(=O)Nc2cc(C)cnc2Cl)S(=O)(=O)c2ccccc2)c1` [SW202972], the inhibition at […] is -6.29% under setting [1] and -2.94% under setting [2].

In the case of `COc1ccc(OC)c(N(CC(=O)N(C)c2cccnc2)S(=O)(=O)c2ccccc2)c1` [SW203686], the inhibition at […] runs as follows: under setting [1], 14.9%; under setting [2], 34.2%.

In the case of `COC(=O)CN(c1cc(OC)ccc1OC)S(=O)(=O)c1ccccc1` [SW202980], the inhibition at […] reads like this: under setting [1], -4.19%; under setting [2], 1.44%.

For the compound `COc1ccc(OC)c(N(CC(=O)Nc2ccc(C)nc2)[S@SP3](=O)(=O)c2ccccc2)c1` [SW202988], the inhibition at […] by setting is: under setting [1], 10.3%; under setting [2], 33.7%.

Consider `COc1ccc(OC)c(N(CC(=O)Nc2ccncc2F)S(=O)(=O)c2ccccc2)c1` [SW208004], for which the inhibition at […] under setting [1] amounted to 52.3% and the inhibition at […] under setting [2] worked out at 57%.

As for `COc1ccc(OC)c(N(CC(=O)Nc2cnccn2)S(=O)(=O)c2ccccc2)c1` [SW203681], the inhibition at […] stood at 36.8% under setting [1] and 64.9% under setting [2].

For `COc1ccc(OC)c(N(CC(=O)Nc2ccncc2)S(=O)(=O)c2ccccc2)c1` [SW202938], the inhibition at […] stood at 52.7% under setting [1] and 75.6% under setting [2].

On to `COc1ccc(OC)c(N(CC(=O)Nc2ccccc2)S(=O)(=O)c2ccccc2)c1` [SW203687], for which the inhibition at […] runs as follows: under setting [1], 15.1%; under setting [2], 33.5%.

As for `COc1ccc(OC)c(N(CC(=O)Nc2cccnc2)S(=O)(=O)c2ccccc2C)c1` [SW202943], the inhibition at […] was -7.42% under setting [1] and 21.8% under setting [2].

Consider `COc1ccc(OC)c(N(CC(=O)OC(C)(C)C)S(=O)(=O)c2ccccc2)c1` [SW202979], for which the inhibition at […] is, setting by setting: under setting [1], 3.92%; under setting [2], 6.24%.

On to `COc1ccc(OC)c(N(CC(=O)Nc2cncc(Cl)c2)S(=O)(=O)c2ccccc2)c1` [SW202990], for which the inhibition at […] reads like this: under setting [1], 22.9%; under setting [2], 47.2%.

In the case of `CNC(=O)CN(c1cc(OC)ccc1OC)S(=O)(=O)c1ccccc1` [SW203682], the inhibition at […] worked out at 15.7% under setting [1] and 36.2% under setting [2].

Take `COc1ccc(OC)c(N(CC(=O)Nc2cccc(C)c2)S(=O)(=O)c2ccccc2)c1` [SW202969]: the inhibition at […] under setting [1] was 0.91% and the inhibition at […] under setting [2] turned out to be 9.43%.

Regarding `COc1ccc(OC)c(N(CC(=O)Nc2cncnc2)S(=O)(=O)c2ccccc2)c1` [SW203683], the inhibition at […] is 23.4% under setting [1] and 57.1% under setting [2].

Take `COc1ccc(OC)c(NCC(=O)Nc2cccnc2)c1` [SW202948]: the inhibition at […] reads like this: under setting [1], 28.3%; under setting [2], 56.7%.

On to `COc1ccc(OC)c(N(CC(=O)Nc2cccnc2)S(=O)(=O)c2ccccc2OC(F)(F)F)c1` [SW202954], for which the inhibition at […] was 6.02% under setting [1] and 9.88% under setting [2].

`COc1ccc(OC)c(N(CC(=O)Nc2cnccc2C)S(=O)(=O)c2ccccc2)c1` [SW202967]: the inhibition at […] by setting is: under setting [1], -11.6%; under setting [2], 0.94%.

Consider `COc1ccc(OC)c(N(CC(=O)Nc2nccs2)S(=O)(=O)c2ccccc2)c1` [SW203691], for which the inhibition at […] under setting [1] turned out to be 2.62%.

With `COc1ccc(OC)c(N(CC(=O)Nc2ccc(Cl)nc2)S(=O)(=O)c2ccccc2)c1` [SW202970], the inhibition at […] is, setting by setting: under setting [1], 17.5%; under setting [2], 48%.

Consider `COc1ccc(OC)c(N(CC(=O)Nc2ccccc2C)S(=O)(=O)c2ccccc2)c1` [SW202975], for which the inhibition at […] is, setting by setting: under setting [1], -14.8%; under setting [2], 4.53%.

For the compound `COc1ccc(OC)c(N(CC(=O)Nc2ccccc2OC)S(=O)(=O)c2ccccc2)c1` [SW202965], the inhibition at […] runs as follows: under setting [1], 11.3%; under setting [2], 33.1%.

`COc1ccc(OC)c(N(CC(=O)Nc2cccnc2)S(=O)(=O)c2ccccc2F)c1` [SW202947]: the inhibition at […] by setting is: under setting [1], 28.8%; under setting [2], 59.2%.

`COc1ccc(OC)c(N(CC(=O)N2CCCC2)S(=O)(=O)c2ccccc2)c1` [SW208001]: the inhibition at […] under setting [1] stood at 21.8% and the inhibition at […] under setting [2] is 27.7%.

`COc1ccc(OC)c(N(CC(=O)Nc2cccnc2C)S(=O)(=O)c2ccccc2)c1` [SW202968]: the inhibition at […] reads like this: under setting [1], -7.09%; under setting [2], 0.78%.

In the case of `COc1ccc(S(=O)(=O)N(CC(=O)Nc2ccncc2)c2cc(OC)ccc2OC)cc1` [SW202989], the inhibition at […] worked out at 81.3% under setting [1] and 89.9% under setting [2].

For `COc1ccc(OC)c(N(CC(=O)Nc2ccnc(F)c2)S(=O)(=O)c2ccccc2)c1` [SW208005], the inhibition at […] runs as follows: under setting [1], 44.1%; under setting [2], 52%.

For `COc1ccc(OC)c(N(CC(=O)Nc2ccnc(Cl)c2)S(=O)(=O)c2ccccc2)c1` [SW202946], the inhibition at […] is, setting by setting: under setting [1], 81.6%; under setting [2], 89.8%.

As for `CCCOC(=O)CN(c1cc(OC)ccc1OC)[S@SP3](=O)(=O)c1ccccc1` [SW202986], the inhibition at […] runs as follows: under setting [1], -2.22%; under setting [2], 2.58%.

With `COc1ccc(OC)c(N(CC(=O)Nc2cncc(C)c2)S(=O)(=O)c2ccccc2)c1` [SW202974], the inhibition at […] is, setting by setting: under setting [1], -4.42%; under setting [2], 24.9%.

As for `COc1ccc(OC)c(N(CC(=O)Nc2cccnc2Cl)S(=O)(=O)c2ccccc2)c1` [SW202973], the inhibition at […] came out at 3.3% under setting [1] and 13.6% under setting [2].

With `COc1ccc(OC)c(N(CC(=O)N2CCc3ccccc32)S(=O)(=O)c2ccccc2)c1` [SW208003], the inhibition at […] is 15.2% under setting [1] and 20.9% under setting [2].

Consider `COc1ccc(OC)c(N(CC(=O)Nc2cccc(Cl)c2)S(=O)(=O)c2ccccc2)c1` [SW202985], for which the inhibition at […] by setting is: under setting [1], 13.8%; under setting [2], 30.9%.

In the case of `COc1ccc(OC)c(N(CC(=O)Nc2cccnc2)S(=O)(=O)c2c(C)cc(C)cc2C)c1` [SW202953], the inhibition at […] runs as follows: under setting [1], 8.81%; under setting [2], 15.1%.

With `COc1ccc(OC)c(N(CC(=O)N2CCCCCC2)S(=O)(=O)c2ccccc2)c1` [SW208000], the inhibition at […] runs as follows: under setting [1], 5.82%; under setting [2], 12.5%.

Turning to `COc1ccc(OC)c(N(CC(=O)Nc2ccnc(C)c2)S(=O)(=O)c2ccccc2)c1` [SW202966], the inhibition at […] runs as follows: under setting [1], 44.7%; under setting [2], 61.4%.

For the compound `CCOC(=O)CN(c1cc(OC)ccc1OC)S(=O)(=O)c1ccccc1` [SW202951], the inhibition at […] by setting is: under setting [1], -15.4%; under setting [2], -8.59%.

Consider `COc1ccc(OC)c(N(CC(N)=O)S(=O)(=O)c2ccccc2)c1` [SW131635], for which the inhibition at […] reads like this: under setting [1], 11.8%; under setting [2], 35.4%.

With `COc1ccc(OC)c(N(CC(=O)Nc2ccnnc2)S(=O)(=O)c2ccccc2)c1` [SW203685], the inhibition at […] runs as follows: under setting [1], 44.3%; under setting [2], 73.3%.

For `COc1ccc(OC)c(N(CC(=O)Nc2cccnc2)S(=O)(=O)c2ccccc2C(F)(F)F)c1` [SW202944], the inhibition at […] is 28.3% under setting [1] and 57.8% under setting [2].

For the compound `COc1ccc(OC)c(N(CC(=O)N2CCCC2=O)S(=O)(=O)c2ccccc2)c1` [SW208002], the inhibition at […] under setting [1] is 34.7% and the inhibition at […] under setting [2] turned out to be 59.2%.

Turning to `COc1ccc(OC)c(N(CC(=O)N2CCCc3ccccc32)S(=O)(=O)c2ccccc2)c1` [SW208006], the inhibition at […] runs as follows: under setting [1], 15.7%; under setting [2], 24.8%.

With `COc1ccc(OC)c(N(CC(=O)Nc2cccnc2)S(=O)(=O)c2ccc(C(C)=O)cc2)c1` [SW202950], the inhibition at […] runs as follows: under setting [1], 46.3%; under setting [2], 56.4%.

In the case of `COc1ccc(OC)c(N(C(C)C(=O)Nc2cccnc2)S(=O)(=O)c2ccccc2)c1` (stereo not drawn) [SW202991], the inhibition at […] reads like this: under setting [1], -14.7%; under setting [2], -6%.

With `COc1ccc(OC)c(CN(CC(=O)Nc2cccnc2)S(=O)(=O)c2ccccc2)c1` [SW203688], the inhibition at […] by setting is: under setting [1], 13.1%; under setting [2], 40%.

For the compound `COc1ccc(OC)c(N(CC(=O)Nc2cccnn2)S(=O)(=O)c2ccccc2)c1` [SW203680], the inhibition at […] under setting [1] was found to be 34.8% and the inhibition at […] under setting [2] turned out to be 62.1%.

Consider `COc1ccc(OC)c(N(CC(=O)OC2CCCCC2)S(=O)(=O)c2ccccc2)c1` [SW202978], for which the inhibition at […] by setting is: under setting [1], 4.14%; under setting [2], 3.12%.

Take `COc1ccc(OC)c(N(CC(=O)Nc2cccnc2)S(=O)(=O)c2ccccc2Cl)c1` [SW202949]: the inhibition at […] reads like this: under setting [1], 12.5%; under setting [2], 34.4%.

As for `COc1ccc(OC)c(N(CC(=O)Nc2ccccn2)S(=O)(=O)c2ccccc2)c1` [SW202941], the inhibition at […] is, setting by setting: under setting [1], 10.9%; under setting [2], 35.6%.

As to `COc1ccc(OC)c(N(CC(=O)OC(C)C)S(=O)(=O)c2ccccc2)c1` [SW202971], the inhibition at […] under setting [1] was -0.72% and the inhibition at […] under setting [2] is -13.2%.

On to `COc1ccc(OC)c(N(CC(=O)Nc2ccccc2Cl)S(=O)(=O)c2ccccc2)c1` [SW202987], for which the inhibition at […] under setting [1] was found to be 4.61% and the inhibition at […] under setting [2] was determined as 6.13%.

Turning to `COc1ccc(OC)c(N(CC(=O)N2CCCCC2)S(=O)(=O)c2ccccc2)c1` [SW131633], the inhibition at […] reads like this: under setting [1], 23.1%; under setting [2], 35.2%.

In the case of `COc1ccc(OC)c(N(CC(=O)Nc2cccnc2)S(=O)(=O)c2cccc(C)c2)c1` [SW203684], the inhibition at […] under setting [1] was determined as 36.4% and the inhibition at […] under setting [2] came out at 64.7%.

A word on the inhibition: it is the drop in the measured response relative to a control, in per cent.
